Laboratory results published in a compilation of properties of binary mixtures (doi:10.1016/j.molliq.2020.112754).

Assay: xn = mol fraction of the nth substance listed
Conditions: 100 kPa

Compound: Cc1ccccc1 + CCCCCC[N+]1(C)CCCC1.O=S(=O)([N-]S(=O)(=O)C(F)(F)F)C(F)(F)F
- viscosity (293.15 K, x1 = 1): 0.598 mPa·s
- viscosity (298.15 K, x1 = 1): 0.569 mPa·s
- viscosity (303.15 K, x1 = 1): 0.539 mPa·s
- viscosity (313.15 K, x1 = 1): 0.495 mPa·s

Compound: Cc1ccccc1 + CCCC[N+]1(C)CCCC1.O=S(=O)([N-]S(=O)(=O)C(F)(F)F)C(F)(F)F
- viscosity (293.15 K, x1 = 1): 0.598 mPa·s
- viscosity (298.15 K, x1 = 1): 0.569 mPa·s
- viscosity (303.15 K, x1 = 1): 0.539 mPa·s
- viscosity (313.15 K, x1 = 1): 0.485 mPa·s

Compound: Cc1ccccc1 + CCCC[n+]1ccccc1.O=S(=O)([N-]S(=O)(=O)C(F)(F)F)C(F)(F)F
- viscosity (293.15 K, x1 = 1): 0.598 mPa·s
- viscosity (298.15 K, x1 = 1): 0.569 mPa·s
- viscosity (303.15 K, x1 = 1): 0.539 mPa·s
- viscosity (308.15 K, x1 = 1): 0.509 mPa·s
- viscosity (313.15 K, x1 = 1): 0.485 mPa·s

Compound: CCCCCC[N+]1(C)CCCC1.O=S(=O)([N-]S(=O)(=O)C(F)(F)F)C(F)(F)F + Cc1ccccc1
- viscosity (293.15 K, x2 = 0): 136.2 mPa·s
- viscosity (293.15 K, x2 = 0.0942): 103.1 mPa·s
- viscosity (293.15 K, x2 = 0.1943): 77.3 mPa·s
- viscosity (293.15 K, x2 = 0.29): 55.6 mPa·s
- viscosity (293.15 K, x2 = 0.493): 24.39 mPa·s
- viscosity (293.15 K, x2 = 0.5961): 14.74 mPa·s
- viscosity (293.15 K, x2 = 0.6986): 8.36 mPa·s
- viscosity (298.15 K, x2 = 0): 102.8 mPa·s
- viscosity (298.15 K, x2 = 0.0942): 79.3 mPa·s
- viscosity (298.15 K, x2 = 0.1943): 61.2 mPa·s
- viscosity (298.15 K, x2 = 0.29): 44.91 mPa·s
- viscosity (298.15 K, x2 = 0.3938): 30.92 mPa·s
- viscosity (298.15 K, x2 = 0.493): 20.68 mPa·s
- viscosity (298.15 K, x2 = 0.5961): 12.89 mPa·s
- viscosity (298.15 K, x2 = 0.6986): 7.61 mPa·s
- viscosity (298.15 K, x2 = 0.7993): 3.838 mPa·s
- viscosity (303.15 K, x2 = 0): 79.6 mPa·s
- viscosity (303.15 K, x2 = 0.0942): 62.3 mPa·s
- viscosity (303.15 K, x2 = 0.1943): 48 mPa·s
- viscosity (303.15 K, x2 = 0.29): 36.7 mPa·s
- viscosity (303.15 K, x2 = 0.3938): 25.95 mPa·s
- viscosity (303.15 K, x2 = 0.493): 17.85 mPa·s
- viscosity (303.15 K, x2 = 0.6986): 6.93 mPa·s
- viscosity (303.15 K, x2 = 0.7993): 3.477 mPa·s
- viscosity (308.15 K, x2 = 0): 63.1 mPa·s
- viscosity (308.15 K, x2 = 0.0942): 50.2 mPa·s
- viscosity (308.15 K, x2 = 0.1943): 39.6 mPa·s
- viscosity (308.15 K, x2 = 0.3938): 22.17 mPa·s
- viscosity (308.15 K, x2 = 0.493): 15.66 mPa·s
- viscosity (308.15 K, x2 = 0.5961): 10.64 mPa·s
- viscosity (308.15 K, x2 = 0.6986): 6.49 mPa·s
- viscosity (313.15 K, x2 = 0.0942): 40.96 mPa·s
- viscosity (313.15 K, x2 = 0.1943): 32.72 mPa·s
- viscosity (313.15 K, x2 = 0.29): 25.67 mPa·s
- viscosity (313.15 K, x2 = 0.3938): 19.3 mPa·s
- viscosity (313.15 K, x2 = 0.493): 14.05 mPa·s
- viscosity (313.15 K, x2 = 0.5961): 9.54 mPa·s
- viscosity (313.15 K, x2 = 0.6986): 5.88 mPa·s
- viscosity (313.15 K, x2 = 0.7993): 2.944 mPa·s

Compound: CCCC[N+]1(C)CCCC1.O=S(=O)([N-]S(=O)(=O)C(F)(F)F)C(F)(F)F + Cc1ccccc1
- viscosity (293.15 K, x2 = 0): 90.2 mPa·s
- viscosity (293.15 K, x2 = 0.1093): 66.9 mPa·s
- viscosity (293.15 K, x2 = 0.1978): 51.5 mPa·s
- viscosity (293.15 K, x2 = 0.3041): 36.61 mPa·s
- viscosity (293.15 K, x2 = 0.3965): 26 mPa·s
- viscosity (293.15 K, x2 = 0.5054): 17.04 mPa·s
- viscosity (293.15 K, x2 = 0.6027): 11.02 mPa·s
- viscosity (293.15 K, x2 = 0.7066): 6.26 mPa·s
- viscosity (298.15 K, x2 = 0.1093): 52.3 mPa·s
- viscosity (298.15 K, x2 = 0.1978): 41.5 mPa·s
- viscosity (298.15 K, x2 = 0.3041): 29.96 mPa·s
- viscosity (298.15 K, x2 = 0.3965): 21.88 mPa·s
- viscosity (298.15 K, x2 = 0.7066): 5.73 mPa·s
- viscosity (303.15 K, x2 = 0): 56.2 mPa·s
- viscosity (303.15 K, x2 = 0.1093): 42.87 mPa·s
- viscosity (303.15 K, x2 = 0.1978): 34.07 mPa·s
- viscosity (303.15 K, x2 = 0.5054): 13.06 mPa·s
- viscosity (303.15 K, x2 = 0.6027): 9.11 mPa·s
- viscosity (303.15 K, x2 = 0.7066): 5.28 mPa·s
- viscosity (308.15 K, x2 = 0): 45.8 mPa·s
- viscosity (308.15 K, x2 = 0.1093): 34.88 mPa·s
- viscosity (308.15 K, x2 = 0.1978): 28.4 mPa·s
- viscosity (308.15 K, x2 = 0.3041): 21.58 mPa·s
- viscosity (308.15 K, x2 = 0.3965): 16.48 mPa·s
- viscosity (308.15 K, x2 = 0.5054): 11.86 mPa·s
- viscosity (308.15 K, x2 = 0.6027): 8.4 mPa·s
- viscosity (308.15 K, x2 = 0.7066): 5.05 mPa·s
- viscosity (313.15 K, x2 = 0.1093): 29.43 mPa·s
- viscosity (313.15 K, x2 = 0.1978): 24.08 mPa·s
- viscosity (313.15 K, x2 = 0.5054): 10.63 mPa·s
- viscosity (313.15 K, x2 = 0.6027): 7.58 mPa·s

Compound: CCCC[n+]1ccccc1.O=S(=O)([N-]S(=O)(=O)C(F)(F)F)C(F)(F)F + Cc1ccccc1
- viscosity (293.15 K, x2 = 0): 68.9 mPa·s
- viscosity (293.15 K, x2 = 0.0994): 54.2 mPa·s
- viscosity (293.15 K, x2 = 0.2022): 41.67 mPa·s
- viscosity (293.15 K, x2 = 0.2939): 31.52 mPa·s
- viscosity (293.15 K, x2 = 0.5025): 15.1 mPa·s
- viscosity (293.15 K, x2 = 0.7033): 6.11 mPa·s
- viscosity (298.15 K, x2 = 0.0994): 42.92 mPa·s
- viscosity (298.15 K, x2 = 0.2022): 33.54 mPa·s
- viscosity (298.15 K, x2 = 0.2939): 25.9 mPa·s
- viscosity (298.15 K, x2 = 0.3972): 19 mPa·s
- viscosity (298.15 K, x2 = 0.6068): 9.09 mPa·s
- viscosity (298.15 K, x2 = 0.7033): 5.53 mPa·s
- viscosity (303.15 K, x2 = 0): 41.94 mPa·s
- viscosity (303.15 K, x2 = 0.0994): 34.61 mPa·s
- viscosity (303.15 K, x2 = 0.2022): 27.6 mPa·s
- viscosity (303.15 K, x2 = 0.3972): 16.23 mPa·s
- viscosity (303.15 K, x2 = 0.5025): 11.99 mPa·s
- viscosity (303.15 K, x2 = 0.6068): 8.21 mPa·s
- viscosity (303.15 K, x2 = 0.7033): 5.19 mPa·s
- viscosity (308.15 K, x2 = 0): 33.75 mPa·s
- viscosity (308.15 K, x2 = 0.0994): 28.44 mPa·s
- viscosity (308.15 K, x2 = 0.2022): 22.89 mPa·s
- viscosity (308.15 K, x2 = 0.2939): 18.36 mPa·s
- viscosity (308.15 K, x2 = 0.6068): 7.48 mPa·s
- viscosity (308.15 K, x2 = 0.7033): 4.96 mPa·s
- viscosity (313.15 K, x2 = 0): 27.63 mPa·s
- viscosity (313.15 K, x2 = 0.0994): 23.67 mPa·s
- viscosity (313.15 K, x2 = 0.2022): 19.28 mPa·s
- viscosity (313.15 K, x2 = 0.2939): 15.83 mPa·s
- viscosity (313.15 K, x2 = 0.5025): 9.23 mPa·s
- viscosity (313.15 K, x2 = 0.7033): 4.293 mPa·s
